Converted amounts (≈) assume the structure as drawn.
Legend:
[1] = target: T1, Phospholipase A2, membrane associated (Homo sapiens, UniProt P14555); test: Inhibition of recombinant sPLA2-2A (unknown origin) using 1-palmitoyl-2-oleoyl-sn-glycero-3-phosphocholine as substrate preincubated for 10 mins followed by substrate addition measured after 60 mins by colorimetric method
T1 sequence (P14555 whole entry): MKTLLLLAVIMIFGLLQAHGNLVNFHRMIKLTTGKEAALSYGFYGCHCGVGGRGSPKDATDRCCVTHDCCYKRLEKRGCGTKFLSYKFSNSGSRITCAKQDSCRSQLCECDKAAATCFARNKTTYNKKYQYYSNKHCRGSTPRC

[2] = target: Secretory phospholipase A2 (Homo sapiens) (UniProt Q5R387+Q9NZK7+P14555+Q9BZM2+Q9UNK4+P39877+O15496+P04054+Q9NZ20+Q9BZM1+Q9BX93); test: Inhibition of sPLA2 in human plasma using 1-Hexadecanoyl-2-(1-pyrenedecanoyl)-sn-glycero-3-phosphomethanol as substrate preincubated for 10 mins followed by substrate addition measured after 90 mins by fluorescence assay; format: cell-free
[3] = Inhibition of recombinant sPLA2-5 (unknown origin) using 1-palmitoyl-2-oleoyl-sn-glycero-3-phosphocholine as substrate preincubated for 10 mins followed by substrate addition measured after 60 mins by colorimetric method; design: species or system Homo sapiens
[4] = target: T2, Group 10 secretory phospholipase A2 (Homo sapiens, UniProt O15496); test: Inhibition of recombinant sPLA2-10 (unknown origin) using 1-palmitoyl-2-oleoyl-sn-glycero-3-phosphocholine as substrate preincubated for 10 mins followed by substrate addition measured after 60 mins by colorimetric method
T2 sequence (O15496 whole entry): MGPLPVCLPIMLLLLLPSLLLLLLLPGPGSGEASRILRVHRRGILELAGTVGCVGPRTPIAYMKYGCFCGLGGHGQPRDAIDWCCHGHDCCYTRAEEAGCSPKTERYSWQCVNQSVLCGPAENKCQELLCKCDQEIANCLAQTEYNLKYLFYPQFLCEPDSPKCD

[5] = Intrinsic clearance in human hepatocytes at 1 uM assessed per million cells measured up to 60 mins; format: ADME, cell-based, Hepatocyte; settings: 1 h
[6] = target: Solute carrier organic anion transporter family member 1B1 (Homo sapiens, UniProt Q9Y6L6); test: Inhibition of human OATP1B1 expressed in HEK293 cells assessed as reduction in […] uptake at 25 uM; format: cell-based; settings: hek293, 25 µM
[7] = AUC (0 to infinity) in mouse at 50 umol/kg, po; format: ADME; design: dose 50 umol/kg, route oral, time infinity; settings: in vivo
[8] = Volume of distribution at steady state in mouse at 10 umol/kg, iv or 50 umol/kg, po; format: ADME, organism-based; settings: in vivo
[9] = Oral bioavailability in mouse at 50 umol/kg; format: ADME, organism-based; settings: in vivo
[10] = AUC (0 to infinity) in Sprague-Dawley rat at 8 umol/kg, po; format: ADME; design: dose 8 umol/kg, time infinity, route oral; settings: in vivo
[11] = Volume of distribution at steady state in Sprague-Dawley rat at 2 umol/kg, iv or 8 umol/kg, po; format: ADME, organism-based; settings: in vivo
[12] = Oral bioavailability in Sprague-Dawley rat at 8 umol/kg; format: ADME, organism-based; settings: in vivo
[13] = AUC (0 to infinity) in beagle dog at 3 umol/kg, po; format: ADME, Canis lupus familiaris; design: dose 3 umol/kg, route oral, time infinity; settings: in vivo
[14] = Volume of distribution at steady state in beagle dog at 1 umol/kg, iv or 3 umol/kg, po; format: ADME, organism-based, Canis lupus familiaris; settings: in vivo
[15] = Oral bioavailability in beagle dog at 3 umol/kg; format: ADME, organism-based, Canis lupus familiaris; settings: in vivo
[16] = AUC (0 to infinity) in cynomolgus monkey at 15.8 umol/kg, po; format: ADME, Macaca fascicularis; design: dose 15.8 umol/kg, route oral, time infinity; settings: in vivo
[17] = Volume of distribution at steady state in cynomolgus monkey at 5 umol/kg, iv or 15.8 umol/kg, po; format: ADME, organism-based, Macaca fascicularis; settings: in vivo
[18] = Oral bioavailability in cynomolgus monkey at 15.8 umol/kg; format: ADME, organism-based, Macaca fascicularis; settings: in vivo
[19] = target: Secretory phospholipase A2; test: Inhibition of sPLA2 in human HepG2 cells; format: cell-based
[20] = target: Secretory phospholipase A2; test: Inhibition of sPLA2 in atherosclerotic plaque from coronary artery disease patient; format: protein assay, Homo sapiens
Macaca fascicularis = species: Macaca fascicularis; test: Inhibition of sPLA2 in cynomolgus monkey plasma using 1-Hexadecanoyl-2-(1-pyrenedecanoyl)-sn-glycero-3-phosphomethanol as substrate preincubated for 10 mins followed by substrate addition measured after 90 mins by fluorescence assay; format: cell-free
Cynomolgus monkey = test: In vivo inhibition of sPLA2 in po dosed cynomolgus monkey plasma measured up to 24 hrs; format: functional, Macaca fascicularis
HepG2 = test: Inhibition of sPLA2-2A production in human HepG2 cells; format: functional, cell-based
[21] = Solubility of compound in pH 7.4 DMSO/HBSS after 24 hrs by LC-UV/MS analysis; format: physicochemical
[22] = Apparent permeability from apical to basolateral side in human Caco2 cells at pH 6.5; format: ADME, cell-based; settings: caco-2, pH 6.5
[23] = target: Voltage-gated inwardly rectifying potassium channel KCNH2 (Homo sapiens, UniProt Q12809); test: Inhibition of human ERG expressed in CHO cells by patch clamp assay; format: cell-based
[24] = target: Sodium channel protein type 5 subunit alpha (Homo sapiens, UniProt Q14524); test: Inhibition of human Nav1.5 expressed in CHO cells by patch clamp assay; format: cell-based
[25] = Inhibition of human IKs channel expressed in CHO cells by patch clamp assay; format: cell-based
[26] = target: A-type voltage-gated potassium channel KCND3 (Homo sapiens, UniProt Q9UK17); test: Inhibition of human Kv4.3 expressed in CHO cells by patch clamp assay; format: cell-based
[27] = target: Voltage-dependent T-type calcium channel subunit alpha-1H (Homo sapiens, UniProt O95180); test: Inhibition of human Cav3.2 expressed in CHO cells by patch clamp assay; format: cell-based
[28] = target: Voltage-dependent L-type calcium channel subunit alpha-1C (Homo sapiens, UniProt Q13936); test: Inhibition of human Cav1.2 expressed in CHO cells by patch clamp assay; format: cell-based
Cytochrome P450 1A2 = Cytochrome P450 1A2 (Homo sapiens, UniProt P05177); test: Inhibition of human recombinant CYP1A2; format: ADME
Cytochrome P450 2C8 = Cytochrome P450 2C8 (Homo sapiens, UniProt P10632); test: Inhibition of human recombinant CYP2C8; format: ADME
Cytochrome P450 3A4 = Cytochrome P450 3A4 (Homo sapiens, UniProt P08684); test: Inhibition of human recombinant CYP3A4; format: ADME
Cytochrome P450 2C9 = Cytochrome P450 2C9 (Homo sapiens, UniProt P11712); test: Inhibition of human recombinant CYP2C9; format: ADME
Cytochrome P450 2C19 = Cytochrome P450 2C19 (Homo sapiens, UniProt P33261); test: Inhibition of human recombinant CYP2C19; format: ADME
Cytochrome P450 2D6 = Cytochrome P450 2D6 (Homo sapiens, UniProt P10635); test: Inhibition of human recombinant CYP2D6; format: ADME
[29] = Volume of distribution at steady state in Sprague-Dawley rat at 2 umol/kg, iv or 4 umol/kg, po; format: ADME, organism-based; settings: in vivo
[30] = Oral bioavailability in Sprague-Dawley rat at 4 umol/kg; format: ADME, organism-based; settings: in vivo
[31] = Volume of distribution at steady state in beagle dog at 1 umol/kg, iv or 2 umol/kg, po; format: ADME, organism-based, Canis lupus familiaris; settings: in vivo
[32] = Oral bioavailability in beagle dog at 2 umol/kg; format: ADME, organism-based, Canis lupus familiaris; settings: in vivo

Sequence of Cytochrome P450 2D6 (P10635 whole entry): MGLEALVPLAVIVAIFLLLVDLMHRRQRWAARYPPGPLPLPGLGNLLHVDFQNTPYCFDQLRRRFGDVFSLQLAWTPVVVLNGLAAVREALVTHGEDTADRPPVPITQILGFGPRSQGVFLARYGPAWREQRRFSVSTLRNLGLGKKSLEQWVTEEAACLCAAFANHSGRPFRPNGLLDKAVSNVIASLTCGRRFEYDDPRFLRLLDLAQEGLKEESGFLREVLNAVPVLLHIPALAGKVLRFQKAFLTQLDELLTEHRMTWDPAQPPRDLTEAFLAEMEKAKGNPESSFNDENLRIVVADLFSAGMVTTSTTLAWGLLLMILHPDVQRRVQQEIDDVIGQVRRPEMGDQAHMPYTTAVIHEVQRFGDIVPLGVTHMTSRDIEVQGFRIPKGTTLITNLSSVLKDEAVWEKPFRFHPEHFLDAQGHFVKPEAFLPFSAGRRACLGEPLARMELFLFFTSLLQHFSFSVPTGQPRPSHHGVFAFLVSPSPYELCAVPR
Sequence of Cytochrome P450 2C9 (P11712 whole entry): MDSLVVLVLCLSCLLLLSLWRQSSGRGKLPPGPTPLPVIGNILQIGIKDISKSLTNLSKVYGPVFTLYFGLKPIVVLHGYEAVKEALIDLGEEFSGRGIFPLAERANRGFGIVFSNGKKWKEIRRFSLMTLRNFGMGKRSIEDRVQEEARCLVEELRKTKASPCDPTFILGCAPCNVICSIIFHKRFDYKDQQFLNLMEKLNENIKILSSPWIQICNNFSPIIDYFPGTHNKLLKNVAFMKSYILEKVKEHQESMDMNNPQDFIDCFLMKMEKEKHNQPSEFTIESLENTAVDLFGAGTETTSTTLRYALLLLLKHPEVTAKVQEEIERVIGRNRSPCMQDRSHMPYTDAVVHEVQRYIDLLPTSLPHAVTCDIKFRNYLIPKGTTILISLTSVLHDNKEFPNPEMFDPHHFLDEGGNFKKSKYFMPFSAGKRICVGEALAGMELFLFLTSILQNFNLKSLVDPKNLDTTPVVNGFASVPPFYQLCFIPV
Sequence of Cytochrome P450 2C19 (P33261 whole entry): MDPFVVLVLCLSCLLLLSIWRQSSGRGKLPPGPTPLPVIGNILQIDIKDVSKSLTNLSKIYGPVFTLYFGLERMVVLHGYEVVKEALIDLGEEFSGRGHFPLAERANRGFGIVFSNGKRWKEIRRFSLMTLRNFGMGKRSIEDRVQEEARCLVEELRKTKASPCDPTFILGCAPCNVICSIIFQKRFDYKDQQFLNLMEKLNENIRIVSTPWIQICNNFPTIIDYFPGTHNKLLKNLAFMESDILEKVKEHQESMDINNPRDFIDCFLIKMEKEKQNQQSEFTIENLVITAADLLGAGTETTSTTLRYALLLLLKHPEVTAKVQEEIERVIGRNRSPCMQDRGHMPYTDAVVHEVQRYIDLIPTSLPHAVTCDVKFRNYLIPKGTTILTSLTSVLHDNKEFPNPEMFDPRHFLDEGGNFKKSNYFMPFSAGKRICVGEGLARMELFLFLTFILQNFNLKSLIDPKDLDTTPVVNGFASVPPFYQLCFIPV
Sequence of Cytochrome P450 1A2 (P05177 whole entry): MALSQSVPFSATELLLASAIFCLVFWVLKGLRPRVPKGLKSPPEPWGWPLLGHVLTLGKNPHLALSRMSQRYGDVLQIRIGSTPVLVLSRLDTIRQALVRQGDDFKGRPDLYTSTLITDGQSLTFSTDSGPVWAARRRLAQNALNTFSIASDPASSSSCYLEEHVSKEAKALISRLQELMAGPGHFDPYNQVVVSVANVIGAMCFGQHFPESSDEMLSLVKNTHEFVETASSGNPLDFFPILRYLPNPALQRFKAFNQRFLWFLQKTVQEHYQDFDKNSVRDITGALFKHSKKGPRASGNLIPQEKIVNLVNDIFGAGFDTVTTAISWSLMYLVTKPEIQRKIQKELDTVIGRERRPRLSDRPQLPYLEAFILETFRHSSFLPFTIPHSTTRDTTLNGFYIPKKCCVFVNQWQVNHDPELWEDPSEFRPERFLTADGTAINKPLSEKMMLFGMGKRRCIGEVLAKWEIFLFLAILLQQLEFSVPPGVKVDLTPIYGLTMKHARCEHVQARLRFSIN
Sequence of A-type voltage-gated potassium channel KCND3 (Q9UK17 whole entry): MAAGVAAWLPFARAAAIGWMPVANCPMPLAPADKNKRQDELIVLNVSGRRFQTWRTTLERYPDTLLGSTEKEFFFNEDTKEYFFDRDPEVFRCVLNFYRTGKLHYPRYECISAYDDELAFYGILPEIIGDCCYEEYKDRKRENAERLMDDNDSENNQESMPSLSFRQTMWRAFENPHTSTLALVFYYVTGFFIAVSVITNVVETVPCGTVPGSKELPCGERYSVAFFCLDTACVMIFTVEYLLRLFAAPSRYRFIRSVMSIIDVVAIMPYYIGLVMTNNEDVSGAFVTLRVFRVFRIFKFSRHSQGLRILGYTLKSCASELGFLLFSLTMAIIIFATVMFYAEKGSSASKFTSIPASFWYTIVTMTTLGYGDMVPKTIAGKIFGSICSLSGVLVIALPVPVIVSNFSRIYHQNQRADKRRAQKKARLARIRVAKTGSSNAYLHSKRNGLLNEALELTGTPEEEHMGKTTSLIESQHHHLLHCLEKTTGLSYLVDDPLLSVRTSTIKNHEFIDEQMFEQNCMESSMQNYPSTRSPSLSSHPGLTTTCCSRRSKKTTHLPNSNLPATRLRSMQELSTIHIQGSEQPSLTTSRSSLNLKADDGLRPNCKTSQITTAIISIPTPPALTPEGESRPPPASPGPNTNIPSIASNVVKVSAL
Sequence of Voltage-dependent L-type calcium channel subunit alpha-1C (Q13936 whole entry): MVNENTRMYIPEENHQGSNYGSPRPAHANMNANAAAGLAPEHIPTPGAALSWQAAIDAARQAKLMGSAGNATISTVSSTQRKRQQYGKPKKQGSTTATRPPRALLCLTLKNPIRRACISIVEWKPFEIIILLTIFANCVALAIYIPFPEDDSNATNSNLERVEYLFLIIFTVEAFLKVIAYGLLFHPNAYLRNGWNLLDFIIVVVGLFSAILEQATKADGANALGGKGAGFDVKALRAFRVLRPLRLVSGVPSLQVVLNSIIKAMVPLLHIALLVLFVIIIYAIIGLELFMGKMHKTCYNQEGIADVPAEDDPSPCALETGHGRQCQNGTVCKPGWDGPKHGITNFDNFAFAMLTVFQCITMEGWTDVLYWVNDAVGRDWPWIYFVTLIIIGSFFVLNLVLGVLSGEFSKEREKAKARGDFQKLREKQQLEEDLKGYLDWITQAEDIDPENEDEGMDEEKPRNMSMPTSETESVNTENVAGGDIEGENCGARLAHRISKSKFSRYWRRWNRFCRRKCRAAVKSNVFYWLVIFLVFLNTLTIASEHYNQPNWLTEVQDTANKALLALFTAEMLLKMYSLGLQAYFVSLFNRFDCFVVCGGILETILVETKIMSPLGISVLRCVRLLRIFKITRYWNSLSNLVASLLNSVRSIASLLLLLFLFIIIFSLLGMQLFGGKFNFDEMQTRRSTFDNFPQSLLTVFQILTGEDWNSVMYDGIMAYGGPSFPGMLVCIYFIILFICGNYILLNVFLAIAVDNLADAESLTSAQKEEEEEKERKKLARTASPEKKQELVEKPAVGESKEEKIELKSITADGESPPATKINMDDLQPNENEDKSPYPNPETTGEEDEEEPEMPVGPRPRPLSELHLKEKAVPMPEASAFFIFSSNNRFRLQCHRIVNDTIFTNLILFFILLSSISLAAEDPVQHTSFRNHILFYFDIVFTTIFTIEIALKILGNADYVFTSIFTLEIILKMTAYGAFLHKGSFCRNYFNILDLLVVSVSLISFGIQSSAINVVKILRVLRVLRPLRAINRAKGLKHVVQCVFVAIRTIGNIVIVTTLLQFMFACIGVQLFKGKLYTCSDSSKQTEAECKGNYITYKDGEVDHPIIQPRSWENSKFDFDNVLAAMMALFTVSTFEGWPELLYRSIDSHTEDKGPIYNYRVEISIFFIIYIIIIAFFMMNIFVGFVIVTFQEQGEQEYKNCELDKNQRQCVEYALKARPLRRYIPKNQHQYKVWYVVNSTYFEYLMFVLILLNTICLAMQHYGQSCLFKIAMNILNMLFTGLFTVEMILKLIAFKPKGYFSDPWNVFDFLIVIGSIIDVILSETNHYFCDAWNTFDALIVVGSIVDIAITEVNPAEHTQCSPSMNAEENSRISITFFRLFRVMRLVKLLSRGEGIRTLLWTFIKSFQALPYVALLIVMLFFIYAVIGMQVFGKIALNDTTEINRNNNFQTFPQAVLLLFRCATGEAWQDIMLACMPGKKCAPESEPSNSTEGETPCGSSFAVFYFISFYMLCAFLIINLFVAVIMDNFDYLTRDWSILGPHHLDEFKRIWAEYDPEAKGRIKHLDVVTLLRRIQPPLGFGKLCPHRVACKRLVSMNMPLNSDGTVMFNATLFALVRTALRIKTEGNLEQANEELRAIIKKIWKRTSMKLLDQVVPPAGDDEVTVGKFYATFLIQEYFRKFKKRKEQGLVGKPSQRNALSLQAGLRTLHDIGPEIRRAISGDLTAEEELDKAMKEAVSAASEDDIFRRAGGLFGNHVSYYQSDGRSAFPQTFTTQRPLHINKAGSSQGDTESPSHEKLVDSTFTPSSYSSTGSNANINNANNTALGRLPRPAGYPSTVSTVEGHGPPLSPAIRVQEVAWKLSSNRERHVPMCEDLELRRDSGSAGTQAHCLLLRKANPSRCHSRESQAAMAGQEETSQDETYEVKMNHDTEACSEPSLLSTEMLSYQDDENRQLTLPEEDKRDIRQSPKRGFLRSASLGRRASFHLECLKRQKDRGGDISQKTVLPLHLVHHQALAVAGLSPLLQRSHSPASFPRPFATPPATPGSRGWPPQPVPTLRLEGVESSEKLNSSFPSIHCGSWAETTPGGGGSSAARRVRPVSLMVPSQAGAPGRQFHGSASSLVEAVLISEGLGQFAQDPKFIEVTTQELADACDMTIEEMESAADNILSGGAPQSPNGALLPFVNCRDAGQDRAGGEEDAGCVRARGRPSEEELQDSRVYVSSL

Which IC50 [1] does the source give for `C[C@H](Cc1cccc(-c2cc(Cc3ccccc3)ccc2C(N)=O)c1)C(=O)O` here?
The IC50 was 0.01 µM.

What about the fIC50 [2] of the same molecule?
The fIC50 was 0.1 nM.

What about the IC50 [3] of the same molecule?
Its IC50 is 0.04 µM.

What about the IC50 [4] of the same molecule?
Its IC50 is 0.4 µM.

And the CLint [5]?
The CLint was 12 µL/min/1e6 cells.

What about the “inhibition (INH)” value [6] of the same molecule?
Its value is “Not Active”.

What about the AUC(0-inf) [7] of the same molecule?
Its AUC(0-inf) is 69.7 µM·h.

What about the Vdss [8] of the same molecule?
Its Vdss is 2.8 L/kg.

And the F [9]?
Its F is 76.3%.

And the AUC(0-inf) [10]?
The AUC(0-inf) was 70 µM·h.

And the Vdss [11]?
The Vdss was 0.21 L/kg.

What about the F [12] of the same molecule?
Its F is 84%.

What about the AUC(0-inf) [13] of the same molecule?
The AUC(0-inf) was 284 µM·h.

And the Vdss [14]?
The Vdss was 0.15 L/kg.

And the F [15]?
Its F is 91%.

And the AUC(0-inf) [16]?
Its AUC(0-inf) is 71.3 µM·h.

And the Vdss [17]?
The Vdss was 1.1 L/kg.

And the F [18]?
The F was 81%.

What about the IC50 [19] of the same molecule?
Its IC50 is under 0.014 µM.

What about the IC50 [20] of the same molecule?
Its IC50 is 0.056 µM.

What about the fIC50 (Macaca fascicularis) of the same molecule?
Its fIC50 is 1 nM.

And the fIC80 (Cynomolgus monkey)?
The fIC80 was 13 nM.

And the inhibition (Cynomolgus monkey; Macaca fascicularis)?
Its inhibition is “Dose-dependent effect”.

What about the IC50 (HepG2) of the same molecule?
The IC50 was 0.176 µM.

With `C[C@@H](Cc1cccc(-c2cc(Cc3ccccc3)ccc2C(N)=O)c1)C(=O)O` as the molecule, how does the IC50 [1] read?
Its IC50 is 0.038 µM.

And the IC50 [3]?
The IC50 was 1.2 µM.

What about the IC50 [4] of the same molecule?
Its IC50 is 3.8 µM.

And the CLint [5]?
The CLint was 9.3 µL/min/1e6 cells.

With `NC(=O)c1ccc(Cc2ccccc2)cc1-c1cccc(OCC(=O)O)c1` as the molecule, how does the IC50 [1] read?
The IC50 was 0.19 µM.

What about the IC50 [4] of the same molecule?
Its IC50 is 3.7 µM.

Which IC50 [1] does the source give for `CCC(Cc1cccc(-c2cc(Cc3ccccc3)ccc2C(N)=O)c1)C(=O)O` (configuration not stated) here?
The IC50 was 0.021 µM.

What about the fIC50 [2] of the same molecule?
Its fIC50 is 0.8 nM.

And the IC50 [3]?
Its IC50 is 0.07 µM.

What about the IC50 [4] of the same molecule?
The IC50 was 0.43 µM.

What about the CLint [5] of the same molecule?
Its CLint is 25 µL/min/1e6 cells.

Which IC50 [1] does the source give for `NC(=O)c1ccc(Cc2ccccc2)cc1-c1cccc(CC(=O)O)c1` here?
Its IC50 is 0.07 µM.

And the fIC50 [2]?
Its fIC50 is 40 nM.

What about the IC50 [3] of the same molecule?
The IC50 was 1.4 µM.

What about the IC50 [4] of the same molecule?
Its IC50 is 1.1 µM.

Which IC50 [1] does the source give for `NC(=O)c1ccc(Cc2ccccc2)cc1-c1cccc(CCC(=O)O)c1` here?
Its IC50 is 0.012 µM.

And the fIC50 [2]?
Its fIC50 is 7 nM.

What about the IC50 [3] of the same molecule?
The IC50 was 0.36 µM.

And the IC50 [4]?
Its IC50 is 0.28 µM.

What about the solubility kinetic at 24 h [21] of the same molecule?
The solubility kinetic at 24 h was 98 µM (≈ 35.2 µg/mL).

What about the Papp [22] of the same molecule?
Its Papp is 401 nm/s.

And the CLint [5]?
Its CLint is 5.2 µL/min/1e6 cells.

What about the IC50 [23] of the same molecule?
Its IC50 is over 33.3 µM.

And the IC50 [24]?
Its IC50 is over 33.3 µM.

And the IC50 [25]?
Its IC50 is over 33.3 µM.

And the IC50 [26]?
Its IC50 is over 33.3 µM.

What about the IC50 [27] of the same molecule?
Its IC50 is over 33.3 µM.

And the IC50 [28]?
The IC50 was over 33.3 µM.

And the IC50 (Cytochrome P450 1A2)?
The IC50 was over 20 µM.

What about the IC50 (Cytochrome P450 2C8) of the same molecule?
The IC50 was over 20 µM.

What about the IC50 (Cytochrome P450 3A4) of the same molecule?
The IC50 was over 20 µM.

What about the IC50 (Cytochrome P450 2C9) of the same molecule?
The IC50 was over 20 µM.

What about the IC50 (Cytochrome P450 2C19) of the same molecule?
The IC50 was over 20 µM.

And the IC50 (Cytochrome P450 2D6)?
Its IC50 is over 20 µM.

And the Vdss [29]?
Its Vdss is 0.22 L/kg.

What about the F [30] of the same molecule?
The F was 81%.

And the Vdss [31]?
Its Vdss is 0.26 L/kg.

What about the F [32] of the same molecule?
The F was 82%.

Reference: ChEMBL document CHEMBL4428134, “Discovery of AZD2716: A Novel Secreted Phospholipase A2 (sPLA2) Inhibitor for the Treatment of Coronary Artery Disease” (ACS Med Chem Lett, 2016)
